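Following 48 hours of exposure in 96-well plates, responses at five concentrations were used to interpolate endpoints linearly. GI50 is the concentration that inhibits growth by half. TGI marks complete inhibition of growth.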
How the values were obtained:
Experiment in all cases: NCI-60 cell line screen, 48 h
[1] = test system: OVCAR-4 ovarian
[2] = test system: A549 NSCLC
[3] = test system: SF-268 CNS
[4] = test system: PC-3 prostate
[5] = test system: NCI-H226 lung
[6] = test system: SK-OV-3 ovarian
[7] = test system: IGROV1 ovarian
[8] = test system: OVCAR-3 ovarian
[9] = test system: NCI-H23 lung
[10] = test system: SW-620 colon
[11] = test system: RPMI-8226 leukemia
[12] = test system: MALME-3M melanoma
[13] = test system: ACHN renal
[14] = test system: MOLT-4 leukemia
[15] = test system: HCC-2998 colon
[16] = test system: A498 renal
[17] = test system: DU-145 prostate
[18] = test system: CCRF-CEM leukemia
[19] = test system: SN12C renal
[20] = test system: SNB-75 CNS
[21] = test system: 786-0 renal
[22] = test system: NCI-H522 lung
[23] = test system: T-47D breast
[24] = test system: SK-MEL-5 melanoma
[25] = test system: HCT-15 colon
[26] = test system: TK-10 renal
[27] = test system: NCI-H460 lung
[28] = test system: UACC-257 melanoma
[29] = test system: HS 578T breast
[30] = test system: SNB-19 CNS
[31] = test system: HOP-92 NSCLC
[32] = test system: UO-31 renal
[33] = test system: CAKI-1 renal
[34] = test system: SR leukemia
[35] = test system: COLO 205 colon
[36] = test system: HT29 colon
[37] = test system: K-562 leukemia
[38] = test system: MDA-MB-231 breast
[39] = test system: SF-539 CNS
[40] = test system: OVCAR-8 ovarian
[41] = test system: UACC-62 melanoma
[42] = test system: M14 melanoma
[43] = test system: RXF 393 renal
[44] = test system: U251 CNS
[45] = test system: BT-549 breast
[46] = test system: SK-MEL-2 melanoma
[47] = test system: SF-295 CNS
[48] = test system: KM12 colon
[49] = test system: MDA-MB-435
[50] = test system: LOX IMVI melanoma
[51] = test system: SK-MEL-28 melanoma
[52] = test system: EKVX NSCLC
[53] = test system: HCT-116 colon
[54] = test system: NCI/ADR-RES ovarian
[55] = test system: OVCAR-5 ovarian
[56] = test system: HOP-62 NSCLC
[57] = test system: HL-60(TB) leukemia
[58] = test system: MCF7 breast

## C=C1C(=O)O[C@H]2[C@H]1CC/C(COC(=O)NCc1c[nH]c3ccc(Br)cc13)=C\CC[C@@]1(C)O[C@@H]21
[1]
  GI50: 1450 nM
  TGI: 3.35 µM
[2]
  GI50: 1750 nM
  TGI: 3.65 µM
[3]
  GI50: 1610 nM
  TGI: 3.41 µM
[4]
  GI50: 1510 nM
  TGI: 3.12 µM
[5]
  GI50: 1.55 µM
  TGI: 3.07 µM
[6]
  GI50: 5.87 µM
  TGI: 18.5 µM
[7]
  GI50: 1450 nM
  TGI: 2.97 µM
[8]
  GI50: 1010 nM
  TGI: 2.29 µM
[9]
  GI50: 1660 nM
  TGI: 3.35 µM
[10]
  GI50: 611 nM
  TGI: 2.3 µM
[11]
  GI50: 752 nM
  TGI: 3.57 µM
[12]
  GI50: 1840 nM
  TGI: 3.53 µM
[13]
  GI50: 1280 nM
  TGI: 2.58 µM
[14]
  GI50: 1700 nM
  TGI: 5.51 µM
[15]
  GI50: 1790 nM
  TGI: 3.3 µM
[16]
  GI50: 1670 nM
  TGI: 3.25 µM
[17]
  GI50: 1110 nM
  TGI: 2.58 µM
[18]
  GI50: 315 nM
  TGI: 1.58 µM
[19]
  GI50: 1360 nM
  TGI: 3.12 µM
[20]
  GI50: 1260 nM
  TGI: 2.53 µM
[21]
  GI50: 841 nM
  TGI: 2360 nM
[22]
  GI50: 589 nM
  TGI: 2.05 µM
[23]
  GI50: 1240 nM
  TGI: 2.99 µM
[24]
  GI50: 1630 nM
  TGI: 2.99 µM
[25]
  GI50: 461 nM
  TGI: 1.87 µM
[26]
  GI50: 1550 nM
  TGI: 2930 nM
[27]
  GI50: 1880 nM
  TGI: 4.04 µM
[28]
  GI50: 1440 nM
  TGI: 2.9 µM
[29]
  GI50: 2170 nM
  TGI: 7.09 µM
[30]
  GI50: 2750 nM
  TGI: 11.3 µM
[31]
  GI50: 1580 nM
  TGI: 3.17 µM
[32]
  GI50: 1380 nM
  TGI: 2680 nM
[33]
  GI50: 1510 nM
  TGI: 2.94 µM
[34]
  GI50: 296 nM
  TGI: 10.1 µM
[35]
  GI50: 884 nM
  TGI: 2.32 µM
[36]
  GI50: 794 nM
  TGI: 2.26 µM
[37]
  GI50: 292 nM
  TGI: 1530 nM
[38]
  GI50: 1490 nM
  TGI: 3.07 µM
[39]
  GI50: 1660 nM
  TGI: 3.13 µM
[40]
  GI50: 1350 nM
  TGI: 3.48 µM
[41]
  GI50: 1310 nM
  TGI: 2.64 µM
[42]
  GI50: 1350 nM
  TGI: 3.07 µM
[43]
  GI50: 1250 nM
  TGI: 2.59 µM
[44]
  GI50: 1630 nM
  TGI: 3.02 µM
[45]
  GI50: 1.29 µM
  TGI: 2.92 µM
[46]
  GI50: 1350 nM
  TGI: 2.81 µM
[47]
  GI50: 1600 nM
  TGI: 3.29 µM
[48]
  GI50: 2230 nM
  TGI: 5.07 µM
[49]
  GI50: 1120 nM
  TGI: 2.55 µM
[50]
  GI50: 701 nM
  TGI: 2050 nM
[51]
  GI50: 1720 nM
  TGI: 3.37 µM
[52]
  GI50: 1580 nM
  TGI: 3.05 µM
[53]
  GI50: 619 nM
  TGI: 1980 nM
[54]
  GI50: 3040 nM
  TGI: 12.4 µM
[55]
  GI50: 1760 nM
  TGI: 3.78 µM
[56]
  GI50: 1520 nM
  TGI: 3.35 µM

## c1ccc(-c2cn3nc(N4CCOCC4)sc3n2)cc1
[1]
  TGI: > 100 µM
[2]
  TGI: > 100 µM
[3]
  TGI: > 100 µM
[4]
  TGI: > 100 µM
[5]
  TGI: > 100 µM
[6]
  TGI: > 100 µM
[7]
  TGI: > 100 µM
[8]
  TGI: > 100 µM
[9]
  TGI: > 100 µM
[10]
  TGI: > 100 µM
[11]
  TGI: > 100 µM
[12]
  TGI: > 100 µM
[13]
  TGI: > 100 µM
[14]
  TGI: > 100 µM
[15]
  TGI: > 100 µM
[17]
  TGI: > 100 µM
[18]
  TGI: > 100 µM
[19]
  TGI: > 100 µM
[20]
  TGI: > 100 µM
[57]
  TGI: > 100 µM
[21]
  TGI: > 100000 nM
[22]
  TGI: > 100 µM
[23]
  TGI: > 100 µM
[24]
  TGI: > 100 µM
[25]
  TGI: > 100 µM
[26]
  TGI: > 100000 nM
[27]
  TGI: > 100 µM
[28]
  TGI: > 100 µM
[29]
  TGI: > 100 µM
[30]
  TGI: > 100 µM
[32]
  TGI: > 100000 nM
[33]
  TGI: > 100 µM
[58]
  TGI: > 100 µM
[35]
  TGI: > 100 µM
[36]
  TGI: > 100 µM
[37]
  TGI: > 100000 nM
[38]
  TGI: > 100 µM
[40]
  TGI: > 100 µM
[41]
  TGI: > 100 µM
[42]
  TGI: > 100 µM
[43]
  TGI: > 100 µM
[44]
  TGI: > 100 µM
[45]
  TGI: > 100 µM
[46]
  TGI: > 100 µM
[47]
  TGI: > 100 µM
[48]
  TGI: > 100 µM
[49]
  TGI: > 100 µM
[51]
  TGI: > 100 µM
[52]
  TGI: > 100 µM
[53]
  TGI: > 100000 nM
[54]
  TGI: > 100 µM
[55]
  TGI: > 100 µM
[56]
  TGI: > 100 µM

## N=C(N)c1ccc(-c2ccc(-c3ccc(F)cc3)s2)nc1
[1]
  GI50: 1870 nM
  TGI: 3.67 µM
[2]
  GI50: 2110 nM
  TGI: 4.78 µM
[3]
  GI50: 2510 nM
  TGI: 6.98 µM
[4]
  GI50: 2230 nM
  TGI: 6.04 µM
[5]
  GI50: 10.3 µM
  TGI: 32.9 µM
[6]
  GI50: 11 µM
  TGI: 28.9 µM
[7]
  GI50: 1780 nM
  TGI: 3.61 µM
[8]
  GI50: 1770 nM
  TGI: 3.26 µM
[9]
  GI50: 2870 nM
  TGI: 8.99 µM
[10]
  GI50: 1840 nM
  TGI: 3.65 µM
[11]
  GI50: 2680 nM
  TGI: 6.83 µM
[12]
  GI50: 1710 nM
  TGI: 3.21 µM
[13]
  GI50: 1810 nM
  TGI: 3.2 µM
[17]
  GI50: 1830 nM
  TGI: 3.27 µM
[18]
  GI50: 2460 nM
  TGI: 6.06 µM
[20]
  GI50: 1550 nM
  TGI: 4.05 µM
[57]
  GI50: 1460 nM
  TGI: 3.38 µM
[22]
  GI50: 2050 nM
  TGI: 4.63 µM
[23]
  GI50: 2180 nM
  TGI: 6.68 µM
[24]
  GI50: 1800 nM
  TGI: 3.24 µM
[25]
  GI50: 1840 nM
  TGI: 3.56 µM
[27]
  GI50: 1880 nM
  TGI: 3.68 µM
[28]
  GI50: 2200 nM
  TGI: 5.12 µM
[29]
  GI50: 2720 nM
  TGI: 8.89 µM
[31]
  GI50: 2020 nM
  TGI: 8.58 µM
[32]
  GI50: 1530 nM
  TGI: 2870 nM
[33]
  GI50: 1670 nM
  TGI: 3.06 µM
[35]
  GI50: 2120 nM
  TGI: 4.76 µM
[36]
  GI50: 2130 nM
  TGI: 5.52 µM
[37]
  GI50: 374 nM
  TGI: 1750 nM
[38]
  GI50: 1730 nM
  TGI: 3.26 µM
[39]
  GI50: 1750 nM
  TGI: 3.2 µM
[41]
  GI50: 1940 nM
  TGI: 4.24 µM
[42]
  GI50: 1790 nM
  TGI: 3.69 µM
[43]
  GI50: 3840 nM
  TGI: 16.9 µM
[45]
  GI50: 5.11 µM
  TGI: 30.1 µM
[46]
  GI50: 3230 nM
  TGI: 9.95 µM
[47]
  GI50: 1850 nM
  TGI: 3.63 µM
[48]
  GI50: 1920 nM
  TGI: 3.57 µM
[49]
  GI50: 1710 nM
  TGI: 3.17 µM
[51]
  GI50: 2130 nM
  TGI: 4.45 µM
[52]
  GI50: 4260 nM
  TGI: 22.9 µM
[54]
  GI50: 2720 nM
  TGI: 6.86 µM
[55]
  GI50: 1730 nM
  TGI: 3.3 µM
[56]
  GI50: 2390 nM
  TGI: 6.21 µM
